{"source": "patent US9012648B2", "about": "“Haptens of risperidone and paliperidone” (Janssen Pharmaceutica NV, priority 2012, dated 2015)", "key": {"hybridoma subclone 2A5": {"system": "hybridoma subclone 2A5", "experiment": "Competition ELISA, hybridoma subclone 2A5 supernatant (FIG. 3)", "type": "binding, mouse", "method": "Supernatants were also tested by competition ELISA to determine if the signals were specific to either risperidone or paliperidone. […] In this competitive format as show in FIG. 4, a low level of analyte (risperidone) results in high signal, whereas a high level of analyte (risperidone) results in low signal. The amount of risperidone in the sample can be calculated from the loss of fluorescence compared to a control sample with no drug present."}, "[1]": {"experiment": "ELISA reactivity of hybridoma supernatants, Ag = Bt-Compound#1 (second TABLE 1)", "type": "binding, mouse"}, "[2]": {"conditions": "Dilution 10800, duplicate wells"}}, "note": "Several values for one entry are separate records, joined by “and”; a condition that tells them apart may be missing. Identical values can stand only once.", "data": [{"molecule": "Cc1nc2n(c(=O)c1CCN1CCC(c3noc4cc(F)ccc34)CC1)CCCC2", "note": "[risperidone]", "values": [{"measurement": "competition ELISA reactivity (in words)", "setting": "hybridoma subclone 2A5", "result": "reactivity"}]}, {"molecule": "Cc1nc2n(c(=O)c1CCN1CCC(c3noc4cc(OCCN)ccc34)CC1)CCCC2O", "note": "(stereo not shown) [Example 1, 3-(2-(4-(6-(2-aminoethoxy)benzo[d]isoxazol-3-yl)piperidin-1-yl)ethyl)-9-hydroxy-2-methyl-6,7,8,9-tetrahydro-4H-pyrido[1,2-a]pyrimidin-4-one]", "values": [{"measurement": "ELISA reactivity", "setting": "[1]; Dilution 400, duplicate wells", "result": "3.2562 and 3.1217"}, {"measurement": "ELISA reactivity", "setting": "[1]; Dilution 1200, duplicate wells", "result": "1.3591 and 1.2607"}, {"measurement": "ELISA reactivity", "setting": "[1]; Dilution 3600, duplicate wells", "result": "0.3745 and 0.3281"}, {"measurement": "ELISA reactivity", "setting": "[1]; [2]", "result": "0.0918 and 0.0879"}]}, {"molecule": "2-(2,5-dioxo-2,5-dihydro-1H-pyrrol-1-yl)-N-(2-((3-(1-(2-(9-hydroxy-2-methyl-4-oxo-6,7,8,9-tetrahydro-4H-pyrido[1,2-a]pyrimidin-3-yl)ethyl)piperidin-4-yl)benzo[d]isoxazol-6-yl)oxy)ethyl)acetamide-keyhole limpet hemocyanin-conjugate [Example 5]", "values": [{"measurement": "ELISA reactivity", "setting": "[1]; Dilution 400, duplicate wells", "result": "3.2897 and 3.1103"}, {"measurement": "ELISA reactivity", "setting": "[1]; Dilution 1200, duplicate wells", "result": "1.4605 and 1.4817"}, {"measurement": "ELISA reactivity", "setting": "[1]; Dilution 3600, duplicate wells", "result": "0.4617 and 0.4159"}, {"measurement": "ELISA reactivity", "setting": "[1]; [2]", "result": "0.1149 and 0.1127"}]}, {"molecule": "Cc1nc2n(c(=O)c1CCN1CCC(c3noc4cc(F)ccc34)CC1)CCCC2O", "note": "(stereo not shown) [paliperidone]", "values": [{"measurement": "competition ELISA reactivity (in words)", "setting": "hybridoma subclone 2A5", "result": "reactivity"}]}]}
